From article PMC6949113, “Preclinical evaluation of AT-527, a novel guanosine nucleotide prodrug with potent, pan-genotypic activity against hepatitis C virus” (PLoS ONE, 2020)
Read-outs that look alike come from different tables or passages of the source.

What was measured:
[1] = Intracellular metabolism in mouse hepatocytes; format: in vitro ADME, mouse (CD1); settings: low to undetectable
Experimental: (§1) Hepatocytes. […] Cryopreserved male mouse (CD1), and fresh male Beagle dog and male cynomolgus monkey hepatocytes were obtained from BioreclamationIVT (Baltimore, MD) and were similarly plated with Matrigel in 6- or 24-well plates and maintained overnight in InVitroGRO™HI medium with Torpedo™ antibiotic (BioreclamationIVT). The protocol described above for measuring AT-511 and its metabolites in Huh-7 cells was repeated with the five different hepatocytes. Untreated cells were collected at 24 h, and the protein content of the cell lysates were determined using a bicinchoninic acid protein assay kit to assess the number of cells in each incubation. Separately, plated human hepatocytes were incubated for 6 h with 100 μM AT-511, followed by washout periods of 0, 2, 6, 18 and 30 h.
(§2) S3 Protocol. LC-MS/MS analysis of AT-511 and metabolites in cultured cells. The supernatant extracts of each hepatocyte and Huh-7 cell incubation were separately analyzed by four different LC-MS/MS methods for quantitation of phosphoramidates, nucleosides, monophosphates, and triphosphates (methods 1, 2, 3 and 4, respectively), using synthetic reference standards of actually and potentially present compounds and using structurally related analogs as internal standards. Briefly, a Luna PFP (2), 5 µm, 100 x 4.6 mm column and an AB Sciex API-6500 mass spectrometer (ESI positive ion, MRM mode) were used for methods 1-3 and an XBridge Oligonucleotide, BEH C18, 2.5 µm, 50 x 2.1 mm column and a Thermo QE Plus mass spectrometer (electrospray, negative ion mode) were used for method 4. For methods 1 and 2, mobile phases A (10 mM ammonium acetate in water) and B (acetonitrile:methanol, 1:1, v/v) were used to elute samples (5 µL) at 1 mL/min with 15% B for 1.5 min followed by a linear gradient to 75% B over 1 min (method 1) or with 54% B for 1.3 min followed by a linear gradient to 90% B over 1.2 min. Method 3 was the same except mobile phase A was 0.3% acetic acid in water, […] and samples were eluted with 3% B for 3 min followed by a linear gradient to 55% B over 1.2 min. For method 4, mobile phase A (3 mM ammonium formate with 10 mM dimethylhexylamine (DMHA) in water) and mobile phase B (3 mM ammonium formate with 10 mM DMHA in acetonitrile:water, 1:1, v/v) were used to elute samples at 0.4 mL/min with 0% B for 1.5 min followed by a linear gradient to 100% B over 2 min and ending with an isocratic elution for 0.5 min at 100% B.

[2] = Intracellular metabolism in dog hepatocytes; format: in vitro ADME, Beagle dog; settings: low to undetectable
Experimental: as §1, §2

Monkey PK study, plasma = format: in vivo, cynomolgus monkey; settings: for plasma concentration: male cynomolgus monkeys; for AUC(0-t) / Cmax / MRT last / Tmax: male, cynomolgus, cynomolgus monkey, in vivo, po
Description: Monkey PK study. Male non-naïve cynomolgus monkeys were obtained from Hainan Jingang Laboratory Animal Co., Ltd. (Hainan, China), group housed during the 5-day acclimation period or individually housed during the study in stainless steel mesh cages, provided ad libitum access to RO water, fed twice daily (~120 g Certified Monkey Diet daily; Beijing Vital Keao Feed Co., Ltd., Beijing, China) and given daily treats of fresh fruit. Additional environmental enrichment included classical music and cartoons. Three groups of 5 monkeys each were administered 30, 100 or 300 mg/kg AT-527 as a powder filled in empty porcine hard gelatin capsules (size 0). The monkeys were fasted overnight prior to dosing and fed 4 h after dosing. Three dosages were selected to provide assessments of dose proportionality, the top two representing potential doses for a repeated oral dose toxicity study in monkeys, and the lowest predicted to be more therapeutically relevant. A pill gun was used to place the capsule beyond the root of the animals’ tongues and their mouths were held loosely closed for approximately 30 sec to allow them to move the jaw and swallow the capsule. Immediately following capsule administration, 20 mL of water was given by mouth and then the mouth was opened to ensure the capsule was swallowed. Blood samples (~0.6 mL) were collected up to 72 h from three animals per dose group, and up to 4 h from the remaining two animals in each group, at the same time points described for rats. […] Blood samples were collected with a syringe from a peripheral blood vessel from restrained, non-sedated animals, immediately transferred to pre-chilled tubes containing ~1 mg K2EDTA•2H20 and 20 μL of 5 mM dichlorvos solution, mixed and placed on ice until plasma was prepared by centrifugation as described for rats. Immediately after centrifugation, plasma samples were extracted with 4 volumes ISS2, and the supernatants were clarified by centrifugation (12,000 rpm, 10 min, 4°C) and stored at ≤ -60°C until analyzed by LC-MS/MS as described below. After the 4-hr blood collection, two monkeys per dose group were anesthetized with intravenous injection of pentobarbital sodium (60 mg/kg) and then euthanized as described for rats. […] All analytes were quantitated by LC-MS/MS as described below.
LC-MS/MS analysis of rat and monkey plasma and tissue homogenate supernatants. For the analysis of AT-511 in rat plasma, aliquots were extracted with 10 volumes ISS2. The supernatants were clarified by centrifugation (4000 rpm for 10 min at 4°C) and 3 μL samples were injected onto an Acuity BEH C18 1.7 μm, 2.1 × 50 mm column and a Sciex API 4000 mass spectrometer (ESI positive ion, MRM mode). Mobile phases A (0.025% formic acid (FA) and 1 mM ammonium acetate (AA) in 5% ACN in water) and B (0.025% FA and 1 mM AA in 95% ACN in water) were used to elute samples (3 μL) at 0.6 mL/min with 10% B for 0.3 min followed by linear gradients to 60% B over 0.6 min and to 90% B over 0.2 min, and ending with 90% B for 0.4 min.
PK data analysis. […] The linear/log trapezoidal rule was applied in obtaining the PK parameters.

[3] = Rat pharmacokinetic study, plasma; format: in vivo, Sprague-Dawley rat; settings: for plasma concentration, individual rats: AT-527 500 mg/kg oral, male 1-3, female 7-9, BQL: <0.0017 AT-511, <0.0022 M1, <0.0032 AT-273, M4
[4] = Intracellular metabolism in human hepatocytes; format: in vitro ADME; settings: human hepatocytes; low to undetectable
Experimental: as §1, §2

K562 cells [5] = assay: Mitochondrial toxicity assay (Mitochondrial ToxGlo, glucose/galactose); format: cell-based, human
Experimental: (§3) Mitochondrial toxicity assay. K562 leukemia cells (ATCC, CCL-243) seeded in 96-well plates (1x10^5 cells/well) were incubated in triplicate with test or positive control compounds in RPMI containing glucose, 10% FBS and 2 mM L-glutamine. […] Viability was compared with untreated cells to determine TC50 values. Separately, K562 cells were incubated in triplicate with test compounds in glucose-free RPMI supplemented with 10 mM galactose. Test compounds diluted in RPMI containing glucose were evaluated in parallel.

[6] = test system: COX-1 protein in PC3 cells; assay: Mitobiogenesis toxicity assay, COX-1; format: cell-based, human; settings: 5 days, read-out: Mitogenesis IC50 COX-1
Experimental: (§4) Mitobiogenesis toxicity assay. […] One plate was used to measure cell viability by XTT staining. Cells in the remaining two plates were fixed with 4% paraformaldehyde for 20 min, washed thrice with DPBS, and 0.5% acetic acid added for 5 min to block endogenous alkaline phosphatase activity. Nuclear DNA encoded Complex II SDH-A mitochondrial protein and mitochondrial encoded Complex IV COX-1 protein were measured spectrophotometrically using the Abcam Mitobiogenesis ELISA kit (Cambridge, UK) per the manufacturer’s instructions.

K562 cells [7] = assay: K562 cytotoxicity (XTT, 3 days); format: cell-based, human
Experimental: as §3

PC3 cells = assay: PC3 cytotoxicity (XTT, 5 days); format: cell-based, human
Experimental: as §4

[8] = test system: SDH-A protein in PC3 cells; assay: Mitobiogenesis toxicity assay, SDH-A; format: cell-based, human; settings: 5 days, read-out: Mitogenesis IC50 SDH-A
Experimental: as §4

[9] = both sexes, Sprague-Dawley, rat, in vivo, po, 500 mg/kg
[10] = K562, glucose-free galactose medium, 2 h, inhibition of cellular ATP levels, read-out: MF (Gal) IC50, mitochondrial function
[11] = K562, glucose-free galactose medium, 2 h, measure of necrosis, read-out: MI (Gal) IC50, cell membrane integrity
[12] = K562 cells, glucose medium, 3 days, XTT
[13] = Homo sapiens, K562, 2 h, read-out: MF (Gal) IC50, mitochondrial function
[14] = Homo sapiens, K562, glucose-free galactose medium, 2 h, measure of necrosis, read-out: MI (Gal) IC50, cell membrane integrity

## CNc1nc(N)nc2c1ncn2[C@@H]1O[C@H](CO)[C@@H](O)[C@@]1(C)F [M4]
[1]
  intracellular levels of nucleoside metabolites: < 10 pmol/10^6 cells
[2]
  intracellular levels of nucleoside metabolites: < 10 pmol/10^6 cells
Monkey PK study, plasma; single oral AT-527 100 mg/kg, 0.500 h, monkey 1;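 as to plasma concentration: concentrations in nmol/mL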
  plasma concentration: BQL
Monkey PK study, plasma; single oral AT-527 100 mg/kg, 72.0 h, monkey 2;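 as to plasma concentration: concentrations in nmol/mL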
  plasma concentration: BQL
Monkey PK study, plasma; single oral AT-527 300 mg/kg, 0.500 h, monkey 1;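 as to plasma concentration: concentrations in nmol/mL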
  plasma concentration: BQL
Monkey PK study, plasma; single oral AT-527 300 mg/kg, 0.500 h, monkey 2;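 as to plasma concentration: concentrations in nmol/mL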
  plasma concentration: BQL
Monkey PK study, plasma; single oral AT-527 300 mg/kg, 0.500 h, monkey 3;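 as to plasma concentration: concentrations in nmol/mL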
  plasma concentration: BQL
Monkey PK study, plasma; single oral AT-527 300 mg/kg, 1.00 h, monkey 1;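 as to plasma concentration: concentrations in nmol/mL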
  plasma concentration: BQL
Monkey PK study, plasma; single oral AT-527 300 mg/kg, 72.0 h, monkey 3
  plasma concentration: BQL
Monkey PK study, plasma; 30 mg/kg
  AUC(0-t): 18.2 ± 1.7 µM·h
  Cmax: 670 ± 140 nM
  MRT last: 22.4 ± 2.4 h
  Tmax: 14.7 ± 8.1 h
Monkey PK study, plasma; 100 mg/kg
  AUC(0-t): 39.2 ± 15 µM·h
  Cmax: 1300 ± 490 nM
  MRT last: 22.3 ± 4.1 h
  Tmax: 15.3 ± 7.6 h
Monkey PK study, plasma; 300 mg/kg
  AUC(0-t): 53.9 ± 31.7 µM·h
  Cmax: 1660 ± 490 nM
  MRT last: 26.6 ± 9.6 h
  Tmax: 17.3 ± 11.5 h
[3]; 48.0 h
  plasma concentration, individual rats: BQL
[3]; 72.0 h
  plasma concentration, individual rats: BQL
[3]; [9]
  AUC(0-t): 207 ± 56.1 µM·h
  Cmax: 28800 ± 8500 nM
  MRT last: 6.41 ± 1.06 h
[4]
  intracellular levels of nucleoside metabolites: < 10 pmol/10^6 cells

## N#CC(C#N)=NNc1cccc(Cl)c1 [CCCP]
K562 cells [5]; [10]
  IC50: < 0.6 µM
K562 cells [5]; [11]
  IC50: 7 µM
[6]
  IC50: 15.1 µM
K562 cells [7]; [12]
  Cytotoxicity TC50: 8.8 µM
PC3 cells; PC3 cells, 5 days, XTT
  Cytotoxicity TC50: 17.7 µM
[8]
  IC50: 13.5 µM

## O=C(N[C@H](CO)[C@H](O)c1ccc([N+](=O)[O-])cc1)C(Cl)Cl [Chloramphenicol]
K562 cells [5]; [13]
  IC50: > 100 µM
K562 cells [5]; [14]
  IC50: > 100 µM
[6]; Homo sapiens, PC-3, 120 h
  IC50: 95.3 µM
K562 cells [7]; human, 3 days
  Cytotoxicity TC50: 50.9 µM
PC3 cells; human, 5 days
  Cytotoxicity TC50: >100 µM
[8]; Homo sapiens, PC-3, 120 h
  IC50: > 100 µM

## Nc1ccn([C@H]2CC[C@@H](CO)O2)c(=O)n1 [ddC]
K562 cells [5]; [10]
  IC50: > 20 µM
K562 cells [5]; [11]
  IC50: > 20 µM
[6]
  IC50: 1.1 µM
K562 cells [7]
  Cytotoxicity TC50: >20 µM
PC3 cells
  Cytotoxicity TC50: >20 µM
[8]
  IC50: > 20 µM

## C[C@@H]1CC[C@@]2(OC1)O[C@H]1[C@@H](O)[C@H]3[C@@H]4CC[C@H]5C[C@@H](O[C@@H]6O[C@H](CO)[C@H](O[C@@H]7O[C@H](CO)[C@@H](O)[C@H](O[C@@H]8OC[C@@H](O)[C@H](O)[C@H]8O)[C@H]7O[C@@H]7O[C@H](CO)[C@H](O)[C@H](O[C@@H]8O[C@H](CO)[C@@H](O)[C@H](O)[C@H]8O)[C@H]7O)[C@H](O)[C@H]6O)[C@H](O)C[C@]5(C)[C@H]4CC[C@]3(C)[C@H]1[C@@H]2C [Digitonin]
K562 cells [5]; [13]
  IC50: 27.9 µM
K562 cells [5]; [14]
  IC50: 31.9 µM
[6]; Homo sapiens, PC-3, 120 h
  IC50: 32.6 µM
K562 cells [7]; [12]
  Cytotoxicity TC50: 8.1 µM
PC3 cells; PC3 cells, 5 days, XTT
  Cytotoxicity TC50: 27.2 µM
[8]; Homo sapiens, PC-3, 120 h
  IC50: 40.7 µM
